According to US9868746B2, “Substituted 5-aminothieno[2,3-C]pyridazine-6-carboxamide analogs as positive allosteric modulators of the muscarinic acetylcholine receptor M4” (Vanderbilt University, priority 2012, dated 2018):
pEC50: −log10 of the molar value.

Target: T1, mAChR M4 (Homo sapiens, UniProt P08173)
T1 construct: expressed in transfected cells; host or cells: CHO-K1 cells stably transfected with M4 cDNA and chimeric G-protein Gqi5
T1 sequence (P08173 1-479): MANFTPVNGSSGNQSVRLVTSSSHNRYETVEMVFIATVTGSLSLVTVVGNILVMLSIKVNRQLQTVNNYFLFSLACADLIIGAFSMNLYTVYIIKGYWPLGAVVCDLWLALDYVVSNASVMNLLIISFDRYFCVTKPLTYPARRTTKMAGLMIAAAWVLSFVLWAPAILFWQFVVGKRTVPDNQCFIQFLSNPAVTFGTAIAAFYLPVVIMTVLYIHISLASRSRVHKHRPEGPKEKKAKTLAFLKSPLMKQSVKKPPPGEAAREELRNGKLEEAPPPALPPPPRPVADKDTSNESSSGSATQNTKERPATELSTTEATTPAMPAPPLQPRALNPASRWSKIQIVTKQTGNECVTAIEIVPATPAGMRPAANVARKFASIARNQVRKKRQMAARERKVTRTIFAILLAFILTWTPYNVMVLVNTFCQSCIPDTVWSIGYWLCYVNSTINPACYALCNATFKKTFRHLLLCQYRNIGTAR
Assay: mAChR M4 cell-based functional assay (calcium mobilization, potentiation of EC20 acetylcholine response)
Details: for Emax at 30 µM: % ACh maximum at 30 μM; for pEC50: mAChR M4 cell-based functional assay, >10,000 estimated for low potency compounds without plateau, read-out: EC50

| SMILES | Emax at 30 µM | pEC50 |
| --- | --- | --- |
| Cc1nnc2sc(C(=O)N3CC(F)(c4ccc(S(C)(=O)=O)cc4)C3)c(N)c2c1C [Example B383] | 51% | 6.29 |
| Cc1nnc2sc(C(=O)N3CC(F)(c4ccc([S+](C)[O-])cc4)C3)c(N)c2c1C (centres unmarked) [Example B384] | 71% | 5.96 |
| Cc1nnc2sc(C(=O)N3CC4CN(C(=O)C5CCC5)CC4C3)c(N)c2c1C (centres unmarked) [Example B385] | 55% | 5.59 |
| Cc1nnc2sc(C(=O)N3CC4CN(C(=O)CC5CCCCC5)CC4C3)c(N)c2c1C (centres unmarked) [Example B386] | 44% | 6.09 |
| Cc1nnc2sc(C(=O)N3CC4CN(C(=O)C(C)C)CC4C3)c(N)c2c1C (centres unmarked) [Example B388] | 55% | < 5.00 |
| CCCCC(=O)N1CC2CN(C(=O)c3sc4nnc(C)c(C)c4c3N)CC2C1 (centres unmarked) [Example B389] | 47% | 5.89 |
| Cc1nnc2sc(C(=O)NC3(c4ccc(F)cc4)CC3)c(N)c2c1C [Example B390] | 46% | < 5.00 |
| Cc1nnc2sc(C(=O)N3CC4(C3)CN(S(=O)(=O)c3ccccc3)C4)c(N)c2c1C [Example B394] | 47% | 5.96 |
| COc1ccccc1C(=O)N1CC(NC(=O)c2sc3nnc(C)c(C)c3c2N)C1 [Example B397] | 64% | 6.37 |
| Cc1nnc2sc(C(=O)N3CC4(CN(C(=O)OCc5ccccc5)C4)C3)c(N)c2c1C [Example B398] | 47% | 6.00 |
| Cc1nnc2sc(C(=O)N3CC(F)(c4cccc(N=[N+]=[N-])c4)C3)c(N)c2c1C [Example B401] | 54% | 5.51 |
| Cc1nnc2sc(C(=O)N3CC4(C3)CN(C(=O)C3CCCC3)C4)c(N)c2c1C [Example B402] | 46% | 5.48 |
| Cc1nnc2sc(C(=O)N3CC4(CN(C(=O)c5ccccc5)C4)C3)c(N)c2c1C [Example B404] | 50% | < 5.00 |
| Cc1nnc2sc(C(=O)N3CC(S(C)(=O)=O)C3)c(N)c2c1C [Example B406] | 54% | 5.77 |
| Cc1nnc2sc(C(=O)N3CC(S(=O)(=O)c4ccc(F)c(F)c4)C3)c(N)c2c1C [Example B415] | 44% | 5.89 |
| COc1ccc(S(=O)(=O)C2CN(C(=O)c3sc4nnc(C)c(C)c4c3N)C2)cc1 [Example B417] | 46% | 6.12 |
| Cc1nnc2sc(C(=O)NC3CN(C(=O)Oc4ccc(N=[N+]=[N-])cc4)C3)c(N)c2c1C [Example B421] | 84% | 7.82 |
| Cc1nnc2sc(C(=O)NC3CN(C(=O)Oc4cccc(N=[N+]=[N-])c4)C3)c(N)c2c1C [Example B424] | 68% | 8.10 |
| Cc1nnc2sc(C(=O)NC3CN(c4ncc(-c5ccccc5)s4)C3)c(N)c2c1C [Example B426] | 67% | 6.36 |
| Cc1nnc2sc(C(=O)NC3CN(c4nccs4)C3)c(N)c2c1C [Example B430] | 58% | 5.68 |

The remaining compounds from weak to strong by pEC50, led by results:

| Emax at 30 µM | pEC50 | SMILES |
| --- | --- | --- |
| 44% | 6.40 | Cc1nnc2sc(C(=O)N3CC(F)(c4ccc(S(=O)(=O)CF)cc4)C3)c(N)c2c1C [Example B393] |
| 54% | 6.46 | Cc1nnc2sc(C(=O)N3CC(S(=O)(=O)c4ccccc4)C3)c(N)c2c1C [Example B413] |
| 63% | 6.47 | Cc1nnc2sc(C(=O)N3CC(Sc4ccc(F)c(F)c4)C3)c(N)c2c1C [Example B414] |
| 88% | 6.52 | Cc1nnc2sc(C(=O)NC3CN(C(=O)c4ccc(F)cc4F)C3)c(N)c2c1C [Example B391] |
| 62% | 6.54 | COc1ncc(CNC(=O)c2sc3nnc(C)c(C)c3c2N)cn1 [Example B399] |
| 65% | 6.57 | Cc1nnc2sc(C(=O)NC3CN(C(=O)c4c(F)cccc4F)C3)c(N)c2c1C [Example B408] |
| 71% | 6.57 | Cc1nnc2sc(C(=O)NCc3ccc(C(F)F)nc3)c(N)c2c1C [Example B420] |
| 61% | 6.66 | Cc1nnc2sc(C(=O)NCc3ccc4c(c3)CN(C(C)C)C4=O)c(N)c2c1C [Example B407] |
| 56% | 6.66 | Cc1nnc2sc(C(=O)N3CC(Sc4ccc(F)cc4F)C3)c(N)c2c1C [Example B419] |
| 70% | 6.70 | Cc1nnc2sc(C(=O)NC3CN(C(=O)c4ccccc4F)C3)c(N)c2c1C [Example B396] |
| 53% | 6.70 | Cc1nnc2sc(C(=O)NCc3cccc(OC(F)(F)F)c3)c(N)c2c1C [Example B410] |
| 56% | 6.80 | COc1cccc(SC2CN(C(=O)c3sc4nnc(C)c(C)c4c3N)C2)c1 [Example B418] |
| 65% | 6.92 | Cc1nnc2sc(C(=O)NC3CN(C(=O)c4ccc(OC(F)(F)F)cc4)C3)c(N)c2c1C [Example B409] |
| 56% | 6.92 | Cc1nnc2sc(C(=O)NCc3ccc(C#N)cc3)c(N)c2c1C [Example B431] |
| 71% | 6.96 | Cc1nnc2sc(C(=O)NC3CN(C(=O)c4cccc(F)c4)C3)c(N)c2c1C [Example B403] |
| 61% | 6.96 | COc1ccc(SC2CN(C(=O)c3sc4nnc(C)c(C)c4c3N)C2)cc1 [Example B416] |
| 46% | 7.04 | Cc1nnc2sc(C(=O)N3CC(Sc4ccccc4)C3)c(N)c2c1C [Example B405] |
| 51% | 7.06 | Nc1c(C(=O)NCc2ccc(S(=O)(=O)CF)cc2)sc2nnc3c(c12)CCCC3 [Example B428] |
| 60% | 7.13 | Cc1nnc2sc(C(=O)NC3CN(C(=O)c4cccc(Cl)c4)C3)c(N)c2c1C [Example B392] |
| 77% | 7.17 | Cc1nnc2sc(C(=O)NCc3ccc(S(=O)(=O)CCO)cc3)c(N)c2c1C [Example B387] |
| 85% | 7.17 | Cc1nnc2sc(C(=O)NCc3ccc(OC(F)F)nc3)c(N)c2c1C [Example B412] |
| 39% | 7.23 | Nc1c(C(=O)NCc2ccc(S(=O)(=O)C(F)F)cc2)sc2nnc3c(c12)CCCC3 [Example B427] |
| 82% | 7.28 | Cc1nnc2sc(C(=O)NCc3ccc(OCF)cc3)c(N)c2c1C [Example B411] |
| 59% | 7.28 | Cc1nnc2sc(C(=O)NC3CN(C(=O)N(C)c4ccccc4)C3)c(N)c2c1C [Example B423] |
| 63% | 7.28 | COc1ccc(C(=O)N2CC(NC(=O)c3sc4nnc(C)c(C)c4c3N)C2)cc1 [Example B400] |
| 71% | 7.33 | CCc1ccc(CNC(=O)c2sc3nnc(C)c(C)c3c2N)cc1 [Example B395] |
| 74% | 7.55 | Cc1nnc2sc(C(=O)NC3CN(c4nc5ccccc5o4)C3)c(N)c2c1C [Example B425] |
| 67% | 7.64 | Cc1nnc2sc(C(=O)NC3CN(c4ncc(Br)cn4)C3)c(N)c2c1C [Example B429] |
| 73% | 7.77 | Cc1nnc2sc(C(=O)NC3CN(c4nc5ccccc5s4)C3)c(N)c2c1C [Example B422] |
